Measured values taken from US20100041089A1, “IMPROVED METHOD FOR DETECTING CHEMICAL […]” (priority 2006, published 2010).

Test system: yeast genes (expressed mRNA)
Assay: DNA chip measurement of expressed mRNA of yeast genes after culture with a toxic chemical substance
Format: cell-based, Saccharomyces cerevisiae S288C
Outline: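 Expression is given as treated/untreated fluorescence ratio on a whole-genome yeast DNA chip, a ratio of two or more being significant. Log-phase S288C cultures in YPD at 25 °C received the chemical for 2 h at a dose that slows growth without killing. mRNA was reverse-transcribed with Cy3- or Cy5-dUTP.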

## O=[N+]([O-])c1cc[n+]([O-])c2ccccc12 [(5), 4-Nitroquinoline-N-oxide]
Yeast gene YKL086W, cultured two hours with substance
  The level of expressed mRNA in the presence of chemical substance/The level of expressed mRNA in the absence of chemical substance: 0.8
Yeast gene YKL139W
  The level of expressed mRNA in the presence of chemical substance/The level of expressed mRNA in the absence of chemical substance: 2.8
Yeast gene YKL151C, cultured two hours with substance
  The level of expressed mRNA in the presence of chemical substance/The level of expressed mRNA in the absence of chemical substance: 1.0
Yeast gene YKL153W, cultured two hours with substance
  The level of expressed mRNA in the presence of chemical substance/The level of expressed mRNA in the absence of chemical substance: 1.0
Yeast gene YKL195W, cultured two hours with substance
  The level of expressed mRNA in the presence of chemical substance/The level of expressed mRNA in the absence of chemical substance: 1.9
Yeast gene YKR091W, cultured two hours with substance
  The level of expressed mRNA in the presence of chemical substance/The level of expressed mRNA in the absence of chemical substance: 1.6
Yeast gene YLR054C, cultured two hours with substance
  The level of expressed mRNA in the presence of chemical substance/The level of expressed mRNA in the absence of chemical substance: 1.3
Yeast gene YLR149C, cultured two hours with substance
  The level of expressed mRNA in the presence of chemical substance/The level of expressed mRNA in the absence of chemical substance: 0.8
Yeast gene YLR152C, cultured two hours with substance
  The level of expressed mRNA in the presence of chemical substance/The level of expressed mRNA in the absence of chemical substance: 1.1
Yeast gene YLR194C, cultured two hours with substance
  The level of expressed mRNA in the presence of chemical substance/The level of expressed mRNA in the absence of chemical substance: 1.0
Yeast gene YLR324W, cultured two hours with substance
  The level of expressed mRNA in the presence of chemical substance/The level of expressed mRNA in the absence of chemical substance: 1.3
Yeast gene YLR350W, cultured two hours with substance
  The level of expressed mRNA in the presence of chemical substance/The level of expressed mRNA in the absence of chemical substance: 0.8
Yeast gene YLR387C, cultured two hours with substance
  The level of expressed mRNA in the presence of chemical substance/The level of expressed mRNA in the absence of chemical substance: 1.3
Yeast gene YLR388W
  The level of expressed mRNA in the presence of chemical substance/The level of expressed mRNA in the absence of chemical substance: 2.5
Yeast gene YLR460C, cultured two hours with substance
  The level of expressed mRNA in the presence of chemical substance/The level of expressed mRNA in the absence of chemical substance: 1.3
Yeast gene YML107C, cultured two hours with the substance
  The level of expressed mRNA in the presence of chemical substance/The level of expressed mRNA in the absence of chemical substance: 2.2
Yeast gene YML117W, cultured two hours with substance
  The level of expressed mRNA in the presence of chemical substance/The level of expressed mRNA in the absence of chemical substance: 0.8
Yeast gene YMR009W, cultured two hours with substance
  The level of expressed mRNA in the presence of chemical substance/The level of expressed mRNA in the absence of chemical substance: 1.9
Yeast gene YMR067C, cultured two hours with substance
  The level of expressed mRNA in the presence of chemical substance/The level of expressed mRNA in the absence of chemical substance: 1.1
Yeast gene YMR090W, cultured two hours with substance
  The level of expressed mRNA in the presence of chemical substance/The level of expressed mRNA in the absence of chemical substance: 0.7
Yeast gene YMR095C, cultured two hours with substance
  The level of expressed mRNA in the presence of chemical substance/The level of expressed mRNA in the absence of chemical substance: 0.9
Yeast gene YMR097C, cultured two hours with substance
  The level of expressed mRNA in the presence of chemical substance/The level of expressed mRNA in the absence of chemical substance: 0.7
Yeast gene YMR102C, cultured two hours with substance
  The level of expressed mRNA in the presence of chemical substance/The level of expressed mRNA in the absence of chemical substance: 1.2
Yeast gene YMR107W, cultured two hours with substance
  The level of expressed mRNA in the presence of chemical substance/The level of expressed mRNA in the absence of chemical substance: 1.1
Yeast gene YMR180C, cultured two hours with substance
  The level of expressed mRNA in the presence of chemical substance/The level of expressed mRNA in the absence of chemical substance: 1.0
Yeast gene YMR184W, cultured two hours with substance
  The level of expressed mRNA in the presence of chemical substance/The level of expressed mRNA in the absence of chemical substance: 0.8
Yeast gene YMR191W, cultured two hours with substance
  The level of expressed mRNA in the presence of chemical substance/The level of expressed mRNA in the absence of chemical substance: 1.5
Yeast gene YMR295C, cultured two hours with substance
  The level of expressed mRNA in the presence of chemical substance/The level of expressed mRNA in the absence of chemical substance: 1.4
Yeast gene YMR316W, cultured two hours with substance
  The level of expressed mRNA in the presence of chemical substance/The level of expressed mRNA in the absence of chemical substance: 1.1
Yeast gene YNL044W, cultured two hours with substance
  The level of expressed mRNA in the presence of chemical substance/The level of expressed mRNA in the absence of chemical substance: 1.2
Yeast gene YNL074C, cultured two hours with substance
  The level of expressed mRNA in the presence of chemical substance/The level of expressed mRNA in the absence of chemical substance: 1.3
Yeast gene YNL092W, cultured two hours with substance
  The level of expressed mRNA in the presence of chemical substance/The level of expressed mRNA in the absence of chemical substance: 0.9
Yeast gene YNL115C, cultured two hours with substance
  The level of expressed mRNA in the presence of chemical substance/The level of expressed mRNA in the absence of chemical substance: 0.8
Yeast gene YNL156C, cultured two hours with substance
  The level of expressed mRNA in the presence of chemical substance/The level of expressed mRNA in the absence of chemical substance: 1.6
Yeast gene YNL217W, cultured two hours with the substance
  The level of expressed mRNA in the presence of chemical substance/The level of expressed mRNA in the absence of chemical substance: 2.1
Yeast gene YNL234W, cultured two hours with substance
  The level of expressed mRNA in the presence of chemical substance/The level of expressed mRNA in the absence of chemical substance: 1.7
Yeast gene YNL281W, cultured two hours with substance
  The level of expressed mRNA in the presence of chemical substance/The level of expressed mRNA in the absence of chemical substance: 1.7
Yeast gene YNL305C, cultured two hours with substance
  The level of expressed mRNA in the presence of chemical substance/The level of expressed mRNA in the absence of chemical substance: 1.3
Yeast gene YNR068C, cultured two hours with substance
  The level of expressed mRNA in the presence of chemical substance/The level of expressed mRNA in the absence of chemical substance: 1.7
Yeast gene YOL032W, cultured two hours with substance
  The level of expressed mRNA in the presence of chemical substance/The level of expressed mRNA in the absence of chemical substance: 1.4
Yeast gene YOL036W, cultured two hours with substance
  The level of expressed mRNA in the presence of chemical substance/The level of expressed mRNA in the absence of chemical substance: 1.2
Yeast gene YOL047C, cultured two hours with substance
  The level of expressed mRNA in the presence of chemical substance/The level of expressed mRNA in the absence of chemical substance: 1.4
Yeast gene YOL071W, cultured two hours with substance
  The level of expressed mRNA in the presence of chemical substance/The level of expressed mRNA in the absence of chemical substance: 0.9
Yeast gene YOL082W, cultured two hours with substance
  The level of expressed mRNA in the presence of chemical substance/The level of expressed mRNA in the absence of chemical substance: 1.5
Yeast gene YOL083W, cultured two hours with substance
  The level of expressed mRNA in the presence of chemical substance/The level of expressed mRNA in the absence of chemical substance: 1.4
Yeast gene YOL117W, cultured two hours with substance
  The level of expressed mRNA in the presence of chemical substance/The level of expressed mRNA in the absence of chemical substance: 1.7
Yeast gene YOL131W, cultured two hours with substance
  The level of expressed mRNA in the presence of chemical substance/The level of expressed mRNA in the absence of chemical substance: 1.5
Yeast gene YOL150C, cultured two hours with substance
  The level of expressed mRNA in the presence of chemical substance/The level of expressed mRNA in the absence of chemical substance: 1.0
Yeast gene YOL162W, cultured two hours with substance
  The level of expressed mRNA in the presence of chemical substance/The level of expressed mRNA in the absence of chemical substance: 0.9
Yeast gene YOR019W, cultured two hours with substance
  The level of expressed mRNA in the presence of chemical substance/The level of expressed mRNA in the absence of chemical substance: 1.4
Yeast gene YOR197W, cultured two hours with substance
  The level of expressed mRNA in the presence of chemical substance/The level of expressed mRNA in the absence of chemical substance: 0.6
Yeast gene YOR215C, cultured two hours with substance
  The level of expressed mRNA in the presence of chemical substance/The level of expressed mRNA in the absence of chemical substance: 1.8
Yeast gene YPL087W, cultured two hours with substance
  The level of expressed mRNA in the presence of chemical substance/The level of expressed mRNA in the absence of chemical substance: 0.6
Yeast gene YPL196W, cultured two hours with substance
  The level of expressed mRNA in the presence of chemical substance/The level of expressed mRNA in the absence of chemical substance: 1.5
Yeast gene YPL206C, cultured two hours with substance
  The level of expressed mRNA in the presence of chemical substance/The level of expressed mRNA in the absence of chemical substance: 0.7
Yeast gene YPL222W, cultured two hours with substance
  The level of expressed mRNA in the presence of chemical substance/The level of expressed mRNA in the absence of chemical substance: 1.2
Yeast gene YPR023C, cultured two hours with substance
  The level of expressed mRNA in the presence of chemical substance/The level of expressed mRNA in the absence of chemical substance: 1.1
Yeast gene YPR151C, cultured two hours with substance
  The level of expressed mRNA in the presence of chemical substance/The level of expressed mRNA in the absence of chemical substance: 1.3
